Measured values as given in paper PMC7915732, “Screening of Yeast Display Libraries of Enzymatically Treated Peptides to Discover Macrocyclic Peptide Ligands” (International Journal of Molecular Sciences, 2021).
One block for each substance: values may come before it.

Key:
TEV protease [1] = assay: TEV protease cleavage, intracellular transglutaminase co-expression, flow cytometry; conditions: 48 h induction
Excerpt: Screening of Yeast Display Libraries of Enzymatically Treated
Peptides to Discover Macrocyclic Peptide Ligands
John Bowen, John Schneible, Kaitlyn Bacon, Collin Labar, Stefano Menegatti and Balaji M. Rao […]
Plasmid construction for intracellular […]
peptide precursors on the surface […]
expression of the transglutaminase en-zyme downstream of the Gal10 promoter. […]
and inserted between the AgeI and KpnI sites of […]
under the direction of the Gal1 promoter and transglutaminase under the direction of the Gal10 promoter. […]
a 6 base pair oligonucleotide encoding the Kex2 recognition site between the pro and active transglutaminase sequence
50 ng of purified PCR product was treated with 1 […]
perature followed by incubation
DNA was then treated for 5 min at room
(New England Biolabs) prior to transformation into electrocompe- […]
introduce a point mutation […]
with an alanine (A) residue
, followed by the treatments with […]
prior to kinase, ligase, and DpnI treatment
Evaluation of intracellular transglutaminase […]
induction, a subset of the cells was treated with TEV protease as described in Section 2.3 to evaluate the extent of putative peptide cyclization. […] Induced cells that were not exposed to TEV protease were also analyzed for comparison. […]
S.1.5. […] The enrich-ment of peptide binders targeting N-terminal YAP between the screening rounds was evaluated via flow cytometry. […]

transglutaminase = assay: Flow cytometry detection of c-myc tag after extracellular transglutaminase treatment; conditions: 1 μM transglutaminase overnight, 37 °C, PBS pH 6, three independent replicates
Excerpt: In this study, we adopted the sequence […] as a model linear precursor to evaluate the efficiency of transglutaminase-mediated cyclization on the surface of yeast cells; this peptide, in fact, served as model substrate in prior work on transglutaminase-mediated cyclization. Specifically, we designed a plasmid construct to express the lead sequence […] as an Aga2p fusion on the surface of Saccharomyces cerevisiae cells. Together with the model peptide, the Aga2p fusion construct contains c-myc and HA epitope tags as well as a tobacco etch virus (TEV) protease signal recognition sequence (Figure 1B). […]
(§1) Yeast cells displaying linear peptide precursors (model sequence […] or 8-mer library sequences) fused to specific epitope tags (HA and c-myc tags for model sequence […]; HA and His tags for library cells) were induced. […] The non-fluorescently conjugated primary antibodies were detected by labeling with a 1:250 dilution of goat-anti-chicken antibody (Immunoreagents, Raleigh, NC, USA) or donkey-anti-rabbit (Immunoreagents, Raleigh, NC, USA) labeled with Alexa Fluor 488 (green), respectively. […] At least 50,000 cells from each sample were analyzed using a MACSQuant VYB Cytometer (Miltenyi Biotec, Bergisch Gladbach, Germany)).

TEV protease [2] = assay: Cleavage of yeast-displayed peptide by TEV protease, flow cytometry; conditions: TEV 3 μM overnight, 37 °C, PBSCl pH 8, three independent replicates
Excerpt: We further evaluated the alleged cyclization yield by assessing the extent of cleavage of transglutaminase-treated vs. untreated peptide constructs from yeast cells by TEV protease. The latter recognizes the sequence ENLYFQ-G/S and cleaves between the Q and G/S residues. We hypothesize that peptide modifications—such as cyclization –inhibit TEV protease from interacting with its recognition sequence included between the construct’s His tag and HA tag. Accordingly, yeast cells expressing the linear peptide precursor—that were either treated with transglutaminase or left untreated—were incubated with TEV protease, and the binding of antibodies targeting the HA and c-myc tags was quantified via flow cytometry. […]
as §1, with “Germany)). […]” for “Germany)).”

[3] = biological target: T1, WW domains of YAP (WW-YAP) (Homo sapiens, UniProt P46937); assay: Yeast surface titration (yeast-displayed peptide, soluble biotinylated WW-YAP); assay type: binding; design: key to KD (apparent) WW-YAP: N/D: not detectable; L/B: low binding; conditions: for binding to WW-YAP (in words): linear peptide, no transglutaminase
T1 construct: which affords the expression of the WW domains of YAP (AAs 165–271); made in house; host or cells: Rosetta E. coli
Protocol: The binding affinity of cyclo[E-[…]-K] for N-terminal YAP and WW-YAP was characterized using a yeast surface titration method developed in prior work. Specifically, yeast cells displaying (putative) cyclo[E-[…]-K] were incubated with soluble, biotinylated N-terminal YAP or WW-YAP to generate binding isotherms; the fraction of cell surface fusions bound by the biotinylated target protein was quantified via immunofluorescent detection of SA-PE (Figure 4). The resulting data were fit to a monovalent binding isotherm to estimate the binding affinity (KD) of the peptide (Table 1). Binding isotherms were also generated using BSA (Figure 4A,C), to characterize the binding selectivity, as well as for cells displaying the linear precursor ([…]), to evaluate the effect of cyclization on the binding activity of the identified peptide sequence (Figure 4B,D).
(§2) Figure 4 Surface titrations of (A) yeast cells displaying (putative) cyclo[E-[…]-K] with the WW domain of YAP (WW-YAP, black circles) and bovine serum albumin (BSA, green diamonds); (B) yeast cells displaying the linear peptide sequence […] with WW-YAP; (C) yeast cells displaying (putative) cyclo[E-[…]-K] with N-terminal-YAP (N-YAP, black circles) and BSA (green diamonds); and (D) yeast cells displaying the linear peptide sequence […] with N-YAP. The binding of each biotinylated protein was detected using SA-PE followed by flow cytometry analysis. […]
Yeast cells encoding the linear precursor […] were induced. […] The cells were then analyzed by flow cytometry as described in [21, 50]. A SA-PE only labeling was also carried out to quantify the mean background fluorescence. […] The values of KD were estimated using Equation (1):(1) F=Fmax[L]o/KD+[L]o where F is the background subtracted mean fluorescence intensity, [L]o is the concentration of soluble target protein used for labeling, and Fmax is the background subtracted fluorescence intensity when surface-saturation is obtained. Fmax was set as the highest value of fluorescence observed in each data set. […]

N-terminal YAP (N-YAP) = biological target: T2, N-terminal YAP (N-YAP) (Homo sapiens, UniProt P46937); assay: Yeast surface titration (yeast-displayed peptide, soluble biotinylated N-terminal YAP); assay type: binding; conditions: linear peptide, no transglutaminase
T2 construct: which affords the expression of N-terminal YAP (AAs 1–291); made in house; host or cells: Rosetta E. coli
Protocol: (§3) The binding affinity of cyclo[E-[…]-K] for N-terminal YAP and WW-YAP was characterized using a yeast surface titration method developed in prior work. Specifically, yeast cells displaying (putative) cyclo[E-[…]-K] were incubated with soluble, biotinylated N-terminal YAP or WW-YAP to generate binding isotherms; the fraction of cell surface fusions bound by the biotinylated target protein was quantified via immunofluorescent detection of SA-PE (Figure 4). The resulting data were fit to a monovalent binding isotherm to estimate the binding affinity (KD) of the peptide (Table 1). […]
as §2
(§4) Yeast cells encoding the linear precursor […] were induced. […] The cells were then analyzed by flow cytometry as described in [21, 50]. A SA-PE only labeling was also carried out to quantify the mean background fluorescence. […]

[4] = biological target: bovine serum albumin (BSA) (Bos taurus, UniProt P02769); assay: Yeast surface titration with biotinylated BSA (selectivity control); assay type: binding; conditions: Figure S7A, intracellular transglutaminase route
Protocol: as §3, §2, §4

T1 sequence (P46937 165-271): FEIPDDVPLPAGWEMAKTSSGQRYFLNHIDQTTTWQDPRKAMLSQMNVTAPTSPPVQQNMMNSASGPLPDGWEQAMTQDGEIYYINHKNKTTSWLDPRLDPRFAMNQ
Sequence of bovine serum albumin (BSA) (P02769 25-607): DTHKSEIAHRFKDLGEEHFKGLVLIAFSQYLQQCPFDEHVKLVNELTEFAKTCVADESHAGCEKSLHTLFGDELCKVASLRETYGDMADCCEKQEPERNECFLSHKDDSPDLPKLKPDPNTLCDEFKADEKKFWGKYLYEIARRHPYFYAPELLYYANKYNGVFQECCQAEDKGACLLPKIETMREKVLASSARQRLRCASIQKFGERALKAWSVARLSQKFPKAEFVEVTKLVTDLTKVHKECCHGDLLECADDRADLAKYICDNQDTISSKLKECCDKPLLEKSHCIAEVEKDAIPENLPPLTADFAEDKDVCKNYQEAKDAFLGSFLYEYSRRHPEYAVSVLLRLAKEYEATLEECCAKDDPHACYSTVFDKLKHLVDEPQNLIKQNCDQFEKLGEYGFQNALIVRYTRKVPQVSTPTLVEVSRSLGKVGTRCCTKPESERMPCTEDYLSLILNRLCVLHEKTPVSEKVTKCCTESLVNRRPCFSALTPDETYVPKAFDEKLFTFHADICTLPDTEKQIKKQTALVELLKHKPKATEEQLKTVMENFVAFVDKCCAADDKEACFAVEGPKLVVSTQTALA
T2 sequence (P46937 1-291): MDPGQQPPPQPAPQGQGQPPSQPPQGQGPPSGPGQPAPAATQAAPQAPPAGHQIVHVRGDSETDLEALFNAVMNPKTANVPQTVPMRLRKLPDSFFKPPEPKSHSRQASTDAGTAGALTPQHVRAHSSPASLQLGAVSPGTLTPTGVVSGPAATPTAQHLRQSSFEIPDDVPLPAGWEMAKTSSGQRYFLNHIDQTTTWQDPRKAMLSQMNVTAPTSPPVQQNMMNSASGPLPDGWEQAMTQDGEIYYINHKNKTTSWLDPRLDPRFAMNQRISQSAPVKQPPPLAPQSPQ

Substance: ALASGSRGGG [active TG, Q-to-A lead/c-myc]
c-myc detection after TEV protease (intracellular constructs) (TEV protease [1]): significantly lower binding

Substance: ALQSGSRGGG-EQKLISEEDL [model peptide]
c-myc signal change on transglutaminase treatment (transglutaminase): a notable decrease in the c-myc signal
c-myc level after TEV protease, transglutaminase-treated (TEV protease [2]; transglutaminase-treated): only a slight decrease
c-myc level after TEV protease, no transglutaminase (TEV protease [2]; untreated with transglutaminase): significant decrease in fluorescence

binding to WW-YAP (in words) ([3]; listed as linear form of the peptide): not WW-YAP
binding to WW-YAP (in words) ([3]; listed as linear precursors): much lower binding affinity
KD (apparent) WW-YAP ([3]; monovalent binding isotherm, 1 h at 4 °C, 0.1% PBSA, SA-PE flow cytometry, average of three independent replicates ± one standard error): L/B
binding to N-terminal YAP (in words) (N-terminal YAP (N-YAP)): shown to bind to N-terminal YAP
Substance: QLYLAYPAHK

binding specificity N-terminal YAP vs. BSA (in words) [4]: selective binder for N-terminal YAP
Substance: cyclo[E-VQCRGKGEQ-K] (sidechain bridge or staple) [putative cyclic peptide from intracellular transglutaminase library]
